Laboratory results reported in the NIST ThermoML archive (doi:10.1021/acs.jced.8b00132).
Where “and” joins values, the source holds several entries; their conditions need not be identical. Equal entries are not always repeated.

Conditions: Liquid, transient hot wire

O=C(C(F)(F)C(F)(F)F)C(F)(C(F)(F)F)C(F)(F)F [dodecafluoro-2-methylpentan-3-one]
Conditions | thermal conductivity
192.97 K, 9415 kPa | 0.07862 W/m/K
192.97 K, 9417 kPa | 0.07861 W/m/K
192.98 K, 6038 kPa | 0.0783 W/m/K
192.98 K, 6049 kPa | 0.07834 W/m/K
192.99 K, 167 kPa | 0.07692 W/m/K
192.99 K, 173 kPa | 0.07695 W/m/K
193 K, 151 kPa | 0.07702 W/m/K
193 K, 154 kPa | 0.07718 W/m/K
193.29 K, 67553 kPa | 0.08802 W/m/K
193.29 K, 67565 kPa | 0.0877 W/m/K
193.3 K, 61029 kPa | 0.08639 W/m/K
193.31 K, 52610 kPa | 0.086 W/m/K
193.31 K, 52615 kPa | 0.08604 W/m/K
193.31 K, 61018 kPa | 0.08674 W/m/K
193.33 K, 44206 kPa | 0.08413 W/m/K
193.33 K, 44213 kPa | 0.08424 W/m/K
193.35 K, 36147 kPa | 0.08312 W/m/K
193.35 K, 36154 kPa | 0.08322 W/m/K
193.37 K, 28301 kPa | 0.08185 W/m/K
193.37 K, 28302 kPa | 0.08165 W/m/K
193.42 K, 20237 kPa | 0.08068 W/m/K
193.43 K, 20237 kPa | 0.08099 W/m/K
193.45 K, 13265 kPa | 0.07982 W/m/K
193.45 K, 13266 kPa | 0.07945 W/m/K
193.48 K, 6427 kPa | 0.07813 W/m/K
193.48 K, 6455 kPa | 0.07812 W/m/K
193.51 K, 179 kPa | 0.07701 W/m/K
193.52 K, 180 kPa | 0.07688 W/m/K
211.41 K, 165 kPa | 0.07448 W/m/K
211.41 K, 170 kPa | 0.07442 W/m/K
211.41 K, 5799 kPa | 0.07599 W/m/K
211.41 K, 5800 kPa | 0.0759 W/m/K
211.41 K, 12664 kPa | 0.07737 W/m/K
211.41 K, 12666 kPa | 0.07746 W/m/K
211.41 K, 19434 kPa | 0.07882 W/m/K and 0.07893 W/m/K
211.43 K, 26838 kPa | 0.08023 W/m/K
211.43 K, 26842 kPa | 0.08059 W/m/K
211.43 K, 34778 kPa | 0.08175 W/m/K
211.43 K, 34786 kPa | 0.0823 W/m/K
211.76 K, 52040 kPa | 0.08466 W/m/K
211.76 K, 52042 kPa | 0.08451 W/m/K
211.77 K, 60806 kPa | 0.08612 W/m/K
211.77 K, 60808 kPa | 0.0862 W/m/K
211.77 K, 67154 kPa | 0.087 W/m/K
211.78 K, 67150 kPa | 0.08734 W/m/K
211.8 K, 12660 kPa | 0.07728 W/m/K
211.8 K, 19446 kPa | 0.07881 W/m/K
211.8 K, 19450 kPa | 0.07869 W/m/K
211.81 K, 173 kPa | 0.07406 W/m/K
211.81 K, 5801 kPa | 0.07566 W/m/K
211.81 K, 5813 kPa | 0.07576 W/m/K
211.81 K, 12660 kPa | 0.0775 W/m/K
211.81 K, 26841 kPa | 0.07965 W/m/K
211.81 K, 26845 kPa | 0.08017 W/m/K
211.81 K, 34792 kPa | 0.08166 W/m/K
211.81 K, 34801 kPa | 0.08137 W/m/K
211.81 K, 43011 kPa | 0.08307 W/m/K
211.81 K, 43012 kPa | 0.0834 W/m/K
211.82 K, 163 kPa | 0.07354 W/m/K
212.17 K, 60783 kPa | 0.08526 W/m/K
212.17 K, 60795 kPa | 0.08562 W/m/K
212.17 K, 67130 kPa | 0.08706 W/m/K
212.18 K, 52048 kPa | 0.08429 W/m/K
212.18 K, 52063 kPa | 0.08422 W/m/K
212.18 K, 67138 kPa | 0.08699 W/m/K
212.23 K, 26847 kPa | 0.0801 W/m/K
212.23 K, 34793 kPa | 0.08106 W/m/K
212.23 K, 34794 kPa | 0.08097 W/m/K
212.23 K, 43021 kPa | 0.08227 W/m/K
212.24 K, 12668 kPa | 0.07725 W/m/K
212.24 K, 19437 kPa | 0.07855 W/m/K
212.24 K, 26845 kPa | 0.07971 W/m/K
212.25 K, 12667 kPa | 0.07727 W/m/K
212.26 K, 5796 kPa | 0.07549 W/m/K
212.27 K, 173 kPa | 0.0737 W/m/K
212.27 K, 5805 kPa | 0.07454 W/m/K
212.28 K, 168 kPa | 0.07378 W/m/K
212.61 K, 67097 kPa | 0.08653 W/m/K
212.61 K, 67117 kPa | 0.08664 W/m/K
212.62 K, 52074 kPa | 0.0837 W/m/K
212.62 K, 60785 kPa | 0.08529 W/m/K
212.62 K, 60787 kPa | 0.08543 W/m/K
212.63 K, 52063 kPa | 0.08349 W/m/K
212.68 K, 43009 kPa | 0.08278 W/m/K
212.68 K, 43023 kPa | 0.08262 W/m/K
212.69 K, 34811 kPa | 0.08103 W/m/K
212.7 K, 26854 kPa | 0.0791 W/m/K
212.7 K, 34796 kPa | 0.08096 W/m/K
212.71 K, 19432 kPa | 0.07795 W/m/K
212.71 K, 26846 kPa | 0.07958 W/m/K
212.72 K, 19443 kPa | 0.07837 W/m/K
212.73 K, 12670 kPa | 0.07626 W/m/K
212.73 K, 12671 kPa | 0.0764 W/m/K
212.75 K, 5793 kPa | 0.07492 W/m/K
212.75 K, 5801 kPa | 0.0748 W/m/K
212.77 K, 172 kPa | 0.07396 W/m/K
212.79 K, 181 kPa | 0.07378 W/m/K
213.1 K, 67106 kPa | 0.08599 W/m/K and 0.08628 W/m/K
213.11 K, 60772 kPa | 0.08539 W/m/K
213.11 K, 60780 kPa | 0.08539 W/m/K
213.13 K, 52081 kPa | 0.08389 W/m/K
213.13 K, 52089 kPa | 0.08383 W/m/K
213.19 K, 43027 kPa | 0.08245 W/m/K
213.19 K, 43036 kPa | 0.08268 W/m/K
213.21 K, 34805 kPa | 0.08073 W/m/K
213.21 K, 34810 kPa | 0.08114 W/m/K
213.23 K, 26845 kPa | 0.07947 W/m/K
213.24 K, 26846 kPa | 0.07959 W/m/K
213.25 K, 19430 kPa | 0.07775 W/m/K
213.25 K, 19435 kPa | 0.0774 W/m/K
213.27 K, 12661 kPa | 0.07617 W/m/K
213.28 K, 12679 kPa | 0.0761 W/m/K
213.31 K, 5806 kPa | 0.07469 W/m/K
213.31 K, 5813 kPa | 0.07468 W/m/K
213.33 K, 173 kPa | 0.07373 W/m/K
213.33 K, 180 kPa | 0.07364 W/m/K
213.62 K, 67087 kPa | 0.08645 W/m/K
213.63 K, 67097 kPa | 0.08628 W/m/K
213.64 K, 60766 kPa | 0.08543 W/m/K
213.65 K, 60770 kPa | 0.08553 W/m/K
213.67 K, 52073 kPa | 0.08388 W/m/K
213.67 K, 52074 kPa | 0.08401 W/m/K
213.74 K, 43029 kPa | 0.08234 W/m/K
213.75 K, 43019 kPa | 0.08232 W/m/K
241.26 K, 25699 kPa | 0.0759 W/m/K
241.27 K, 25696 kPa | 0.07599 W/m/K
241.32 K, 12027 kPa | 0.07227 W/m/K and 0.07234 W/m/K
241.33 K, 18761 kPa | 0.07423 W/m/K
241.33 K, 18763 kPa | 0.0739 W/m/K
241.38 K, 209 kPa | 0.06892 W/m/K and 0.06884 W/m/K
241.39 K, 5841 kPa | 0.07049 W/m/K
241.39 K, 5844 kPa | 0.07044 W/m/K
241.62 K, 33678 kPa | 0.07765 W/m/K
241.63 K, 33700 kPa | 0.07761 W/m/K
241.64 K, 41986 kPa | 0.0795 W/m/K
241.65 K, 41994 kPa | 0.07941 W/m/K
241.65 K, 50824 kPa | 0.0813 W/m/K
241.65 K, 50825 kPa | 0.08126 W/m/K
241.66 K, 60321 kPa | 0.08312 W/m/K
241.66 K, 60336 kPa | 0.08322 W/m/K
241.67 K, 25701 kPa | 0.07567 W/m/K
241.68 K, 25692 kPa | 0.0752 W/m/K
241.68 K, 68451 kPa | 0.08416 W/m/K
241.68 K, 68475 kPa | 0.0844 W/m/K
241.74 K, 18761 kPa | 0.07395 W/m/K
241.75 K, 12028 kPa | 0.07237 W/m/K
241.75 K, 18761 kPa | 0.07396 W/m/K
241.76 K, 12022 kPa | 0.07209 W/m/K
241.83 K, 210 kPa | 0.06806 W/m/K
241.83 K, 5847 kPa | 0.06983 W/m/K
241.84 K, 211 kPa | 0.06786 W/m/K
241.84 K, 5846 kPa | 0.07 W/m/K
242.08 K, 33680 kPa | 0.0771 W/m/K
242.08 K, 60313 kPa | 0.08307 W/m/K
242.09 K, 33695 kPa | 0.07709 W/m/K
242.09 K, 41985 kPa | 0.07857 W/m/K
242.09 K, 50804 kPa | 0.081 W/m/K
242.09 K, 50825 kPa | 0.08098 W/m/K
242.1 K, 41988 kPa | 0.07839 W/m/K
242.1 K, 60314 kPa | 0.08294 W/m/K
242.1 K, 68448 kPa | 0.08374 W/m/K
242.11 K, 68433 kPa | 0.08377 W/m/K
242.14 K, 25700 kPa | 0.07474 W/m/K
242.14 K, 25703 kPa | 0.07481 W/m/K
242.23 K, 18760 kPa | 0.07343 W/m/K
242.23 K, 18761 kPa | 0.07341 W/m/K
242.24 K, 12027 kPa | 0.07149 W/m/K
242.24 K, 12030 kPa | 0.07138 W/m/K
